One assay has as its system Kasumi-1 cells. The assay can be described thus: Kasumi-1 cellular viability assay (ATP-Lite, 72 h). In kind it is cell-based. The settings on record: Homo sapiens, ATP-Lite luminescence, % viability relative to DMSO. In short, it runs like this: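 Viability was read by ATP-Lite One Step luminescence after 72 h compound treatment at 37 °C/5% CO2, normalised to DMSO control, with IC50 fitted from concentration-response. Cells were Kasumi-1 (AML FAB M2) at 15000 per well in RPMI-1640/10% FBS, 0.1% DMSO final.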

The target in assay [1] is T1, recombinant METTL3/METTL14 complex (Homo sapiens, UniProt Q86U44).
T1 construct: purchased Active Motif 311970; host or cells: Sf9 cells
The assay can be described thus: METTL3/14 Scintillation Proximity Assay (SPA), RNA methyltransferase activity. In kind it is biochemical. Particulars: 5.31 nM METTL3/14 complex, 250 nM RNA substrate, 1 μM 3H-SAM, 90 min; for compounds marked * best of the two separated forms. In general terms: In a scintillation proximity assay essentially only radioactivity close to the scintillant gives light.

A further assay relates to Caov-3 cells. The assay can be described thus: Caov-3 cellular viability assay (ATP-Lite, 72 h). In kind it is cell-based. Particulars: Homo sapiens, ATP-Lite luminescence, % viability relative to DMSO. The method in brief: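 IC50 values come from concentration-response fits of luminescent ATP content (ATP-Lite One Step), normalised as % viability versus DMSO. Compound exposure was 72 h at 37 °C in RPMI-1640/10% FBS with 0.1% final DMSO. Wells held 10000 cells each.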

As a reminder, the pIC50 is the negative decadic logarithm of the IC50, by convention in mol/L.

pIC50: −log10 of the molar value.

T1 sequence (Q86U44 whole entry): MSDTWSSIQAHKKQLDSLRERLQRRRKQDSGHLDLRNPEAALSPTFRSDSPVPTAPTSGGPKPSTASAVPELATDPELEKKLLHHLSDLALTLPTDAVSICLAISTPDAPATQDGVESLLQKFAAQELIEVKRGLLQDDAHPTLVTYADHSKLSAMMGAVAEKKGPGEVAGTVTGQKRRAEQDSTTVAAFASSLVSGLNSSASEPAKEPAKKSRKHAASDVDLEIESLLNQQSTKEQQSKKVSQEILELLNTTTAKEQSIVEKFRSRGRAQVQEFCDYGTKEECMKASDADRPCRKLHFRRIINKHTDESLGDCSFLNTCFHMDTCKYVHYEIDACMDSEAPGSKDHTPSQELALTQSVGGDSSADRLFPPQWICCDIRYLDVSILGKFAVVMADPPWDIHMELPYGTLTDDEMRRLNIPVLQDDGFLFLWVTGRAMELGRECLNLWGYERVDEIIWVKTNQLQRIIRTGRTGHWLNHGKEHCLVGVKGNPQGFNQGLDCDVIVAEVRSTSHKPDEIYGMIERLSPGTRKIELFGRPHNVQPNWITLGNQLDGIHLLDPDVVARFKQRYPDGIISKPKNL
T1 sequence (Q9HCE5 whole entry partner): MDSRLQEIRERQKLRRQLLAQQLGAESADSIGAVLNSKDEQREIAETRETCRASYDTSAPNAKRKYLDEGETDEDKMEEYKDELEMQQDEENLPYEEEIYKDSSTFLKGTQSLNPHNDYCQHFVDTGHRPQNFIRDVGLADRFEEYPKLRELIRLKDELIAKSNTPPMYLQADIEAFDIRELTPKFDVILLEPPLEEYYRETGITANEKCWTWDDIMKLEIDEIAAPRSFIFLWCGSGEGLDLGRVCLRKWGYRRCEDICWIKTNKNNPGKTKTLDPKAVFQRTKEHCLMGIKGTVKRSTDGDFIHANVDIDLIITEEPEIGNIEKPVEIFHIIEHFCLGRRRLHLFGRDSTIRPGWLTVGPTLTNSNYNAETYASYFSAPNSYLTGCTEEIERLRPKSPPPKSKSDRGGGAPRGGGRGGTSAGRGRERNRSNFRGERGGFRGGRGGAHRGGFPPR

On to `CC(c1cnn(-c2cncc(N(C)C)c2)c1)n1ccc(N2CCC[C@@H](NCC3CC3)C2)cc1=O` (stereo partly drawn) [Compound 196, 4-((R)-3-((cyclopropylmethyl)amino)piperidin-1-yl)-1-(1-(1-(5-(dimethylamino)pyridin-3-yl)-1H-pyrazol-4-yl)ethyl)pyridin-2(1H)-one], for which the pIC50 with Kasumi-1 cells is at least 6.30; in assay [1], at least 7.30; in the assay on Caov-3 cells, at least 6.30.
As for `CC(c1ccc(N2CCC[C@@H](NCC3CC3)C2)cn1)c1nnc(-c2cncc(C3CC3)c2)s1` (stereo partly drawn) [Compound 359, (3R)—N-(cyclopropylmethyl)-1-(6-(1-(5-(5-cyclopropylpyridin-3-yl)-1,3,4-thiadiazol-2-yl)ethyl)pyridin-3-yl)piperidin-3-amine], the pIC50 in the assay on Kasumi-1 cells is at least 6.30; in assay [1] it was at least 7.30; with Caov-3 cells, at least 6.30.
As for `O=C(Nc1cc(=O)n2ccccc2n1)C1(c2ccc(N3CCC[C@@H](NCC4CC(F)(F)C4)C3)cn2)COC1` [Compound 338, (R)-3-(5-(3-(((3,3-difluorocyclobutyl)methyl)amino)piperidin-1-yl)pyridin-2-yl)-N-(4-oxo-4H-pyrido[1,2-a]pyrimidin-2-yl)oxetane-3-carboxamide], the values for the pIC50 (in the assay with Kasumi-1 cells; in assay [1]; in the assay on Caov-3 cells) were at least 6.30, at least 7.30 and at least 6.30, respectively.
As for `CC(c1cnn(-c2cncc(C3CC3)c2)c1)c1ccc(N2CCC[C@@H](NCC3CC3)C2)cn1` (single isomer, unassigned) [Compound 356], the pIC50 in the assay with Kasumi-1 cells is at least 6.30; in assay [1], at least 7.30; in the assay on Caov-3 cells it was at least 6.30.
As for `O=C(Nc1cc(=O)n2ccccc2n1)C1(c2ccc(N3CCC[C@@H](NCC4CCCC4)C3)cn2)COC1` [Compound 325, (R)-3-(5-(3-((cyclopentylmethyl)amino)piperidin-1-yl)pyridin-2-yl)-N-(4-oxo-4H-pyrido[1,2-a]pyrimidin-2-yl)oxetane-3-carboxamide], the negative logarithm of the IC50 (pIC50) in the assay on Kasumi-1 cells is 5.30 to 6.30; in assay [1] it was at least 7.30; in the assay on Caov-3 cells it was at least 6.30.
For `CCN(C)c1cncc(-c2cn(C(C)n3ccc(N4CCC[C@@H](NCC5CCC5)C4)cc3=O)nn2)c1` (single isomer, unassigned) [Compound 151] the same measures were at least 6.30, at least 7.30 and at least 6.30.
Consider `O=C(Nc1cncc(N2CCCC2)c1)C1(c2ccc(N3CCC[C@@H](NCC4CC4)C3)cn2)COC1` [Compound 195, (R)-3-(5-(3-((cyclopropylmethyl)amino)piperidin-1-yl)pyridin-2-yl)-N-(5-(pyrrolidin-1-yl)pyridin-3-yl)oxetane-3-carboxamide], for which the values for the pIC50 (in the assay with Kasumi-1 cells; in assay [1]; in the assay on Caov-3 cells) were 5.30 to 6.30, at least 7.30 and 5.30 to 6.30, respectively.
As to `O=C(Nc1cncc(N2CCCC2)n1)C1(c2ccc(N3CCC[C@@H](NCC4CC4)C3)nc2)COC1` [Compound 324, (R)-3-(6-(3-((cyclopropylmethyl)amino)piperidin-1-yl)pyridin-3-yl)-N-(6-(pyrrolidin-1-yl)pyrazin-2-yl)oxetane-3-carboxamide], the values for the pIC50 (with Kasumi-1 cells; in assay [1]; in the assay on Caov-3 cells) were at least 6.30, at least 7.30 and at least 6.30, respectively.
With `c1ncc(N2CCCC2)cc1-c1cn(C2(c3ccc(N4CCC[C@@H](NCC5CC5)C4)nc3)COC2)nn1` [Compound 223, (R)-N-(cyclopropylmethyl)-1-(5-(3-(4-(5-(pyrrolidin-1-yl)pyridin-3-yl)-1H-1,2,3-triazol-1-yl)oxetan-3-yl)pyridin-2-yl)piperidin-3-amine], the pIC50 was at least 6.30 in the assay on Kasumi-1 cells, at least 7.30 in assay [1] and at least 6.30 in the assay with Caov-3 cells.
Regarding `O=C(NCc1ccc(N2CCC[C@@H](NCC3CCC3)C2)cn1)c1cc(=O)n2ccccc2n1` [Compound 060, (R)-N-((5-(3-((cyclobutylmethyl)amino)piperidin-1-yl)pyridin-2-yl)methyl)-4-oxo-4H-pyrido[1,2-a]pyrimidine-2-carboxamide], the pIC50 is under 5.30 with Kasumi-1 cells, at least 7.30 in assay [1] and under 5.30 in the assay with Caov-3 cells.
In the case of `Cn1c(N2CCCC2)cc(NC(=O)C2(c3ccc(N4CCC[C@@H](NCC5CCC5)C4)cn3)COC2)cc1=O` [Compound 310, (R)-3-(5-(3-((cyclobutylmethyl)amino)piperidin-1-yl)pyridin-2-yl)-N-(1-methyl-2-oxo-6-(pyrrolidin-1-yl)-1,2-dihydropyridin-4-yl)oxetane-3-carboxamide], the pIC50 in the assay with Kasumi-1 cells was 5.30 to 6.30; in assay [1] it was at least 7.30; in the assay on Caov-3 cells it was at least 6.30.
For `COc1cc(-c2cn(Cc3cnc(N4CCCC(NCC5CCC5)C4)cn3)nn2)c2cn[nH]c2c1` (stereo not drawn) [Compound 047, N-(cyclobutylmethyl)-1-(5-((4-(6-methoxy-1H-indazol-4-yl)-1H-1,2,3-triazol-1-yl)methyl)pyrazin-2-yl)piperidin-3-amine] the same measures were 5.30 to 6.30, at least 7.30 and under 5.30.
The like results for `CN(C)c1cncc(-c2cn(Cn3ccc(N4CCC[C@@H](NCC5CC5)C4)cc3=O)nn2)c1` [Compound 174, (R)-4-(3-((cyclopropylmethyl)amino)piperidin-1-yl)-1-((4-(5-(dimethylamino)pyridin-3-yl)-1H-1,2,3-triazol-1-yl)methyl)pyridin-2(1H)-one] were, in that order, at least 6.30, at least 7.30 and at least 6.30.
For `O=C(Nc1cncc(N2CCCC2)n1)C1(c2ccc(N3CCC[C@@H](NCC4CCC4)C3)nc2)COC1` [Compound 319, (R)-3-(6-(3-((cyclobutylmethyl)amino)piperidin-1-yl)pyridin-3-yl)-N-(6-(pyrrolidin-1-yl)pyrazin-2-yl)oxetane-3-carboxamide] the same measures were at least 6.30, at least 7.30 and at least 6.30.
For the compound `c1cc(C2(c3nnc(-c4cncc(N5CCCC5)n4)s3)COC2)ncc1N1CCC[C@@H](NCC2CC2)C1` [Compound 369, (R)-N-(cyclopropylmethyl)-1-(6-(3-(5-(6-(pyrrolidin-1-yl)pyrazin-2-yl)-1,3,4-thiadiazol-2-yl)oxetan-3-yl)pyridin-3-yl)piperidin-3-amine], the pIC50 in the assay on Kasumi-1 cells was at least 6.30; in assay [1], at least 7.30; with Caov-3 cells, at least 6.30.
Consider `COc1cncc(-n2cc(Cn3ccc(N4CCC[C@@H](NCC5CCC5)C4)cc3=O)nn2)c1` [Compound 075, (R)-4-(3-((cyclobutylmethyl)amino)piperidin-1-yl)-1-((1-(5-methoxypyridin-3-yl)-1H-1,2,3-triazol-4-yl)methyl)pyridin-2(1H)-one], for which the values for the pIC50 (with Kasumi-1 cells; in assay [1]; with Caov-3 cells) were under 5.30, at least 7.30 and 5.30 to 6.30, respectively.
On to `COc1cncc(-c2cn([C@H](C)n3ccc(N4CCC[C@@H](NCC5CCC5)C4)cc3=S)nn2)c1` [Compound 116, 4-((R)-3-((cyclobutylmethyl)amino)piperidin-1-yl)-1-((R)-1-(4-(5-methoxypyridin-3-yl)-1H-1,2,3-triazol-1-yl)ethyl)pyridine-2(1H)-thione], for which the negative logarithm of the IC50 (pIC50) in the assay with Kasumi-1 cells was at least 6.30; in assay [1], at least 7.30; with Caov-3 cells, at least 6.30.
Turning to `COc1cc(-c2cn(Cc3ccc(N4CCC[C@@H](NCC5CCC5)C4)nn3)nn2)c2cncn2c1` [Compound 013, (R)-N-(cyclobutylmethyl)-1-(6-((4-(6-methoxyimidazo[1,5-a]pyridin-8-yl)-1H-1,2,3-triazol-1-yl)methyl)pyridazin-3-yl)piperidin-3-amine], the pIC50 with Kasumi-1 cells is 5.30 to 6.30; in assay [1] it was at least 7.30; with Caov-3 cells, at least 6.30.
The like results for `CC(n1cc(-c2cncc(N3CC4(COC4)C3)n2)nn1)n1ccc(N2CCC[C@@H](NCC3CC3)C2)cc1=O` (single isomer, unassigned) [Compound 237] were, in that order, 5.30 to 6.30, at least 7.30 and 5.30 to 6.30.
For the compound `CN1CC(c2ccc(N3CCC[C@@H](NCC4CC4)C3)cn2)(n2cc(-c3cncc(C4CC4)c3)nn2)C1` [Compound 350, (R)-N-(cyclopropylmethyl)-1-(6-(3-(4-(5-cyclopropylpyridin-3-yl)-1H-1,2,3-triazol-1-yl)-1-methylazetidin-3-yl)pyridin-3-yl)piperidin-3-amine], the results for the pIC50 (in the assay on Kasumi-1 cells; in assay [1]; in the assay with Caov-3 cells) were 5.30 to 6.30, at least 7.30 and 5.30 to 6.30, respectively.
Consider `COc1cc(-c2cn(Cc3ccc(N4CCC[C@@H](NCC5CC5)C4)nn3)nn2)c2cn[nH]c2c1` [Compound 015, (R)-N-(cyclopropylmethyl)-1-(6-((4-(6-methoxy-1H-indazol-4-yl)-1H-1,2,3-triazol-1-yl)methyl)pyridazin-3-yl)piperidin-3-amine], for which the results for the pIC50 (in the assay on Kasumi-1 cells; in assay [1]; in the assay with Caov-3 cells) were 5.30 to 6.30, at least 7.30 and at least 6.30, respectively.
For `c1cc(N2CCC[C@@H](NCC3CCC3)C2)ccc1Cn1cc(-c2cncc(N3CCCC3)n2)nn1` [Compound 287, (R)-N-(cyclobutylmethyl)-1-(4-((4-(6-(pyrrolidin-1-yl)pyrazin-2-yl)-1H-1,2,3-triazol-1-yl)methyl)phenyl)piperidin-3-amine] the same measures were at least 6.30, at least 7.30 and at least 6.30.
For `c1cc(C2(n3cc(-c4cncc(N5CCCC5)n4)nn3)COC2)ncc1N1CCCC(NCC2CCC2)C1` (stereo in doubt) [Compound 290, (R)-N-(cyclobutylmethyl)-1-(6-(3-(4-(6-(pyrrolidin-1-yl)pyrazin-2-yl)-1H-1,2,3-triazol-1-yl)oxetan-3-yl)pyridin-3-yl)piperidin-3-amine] the same measures were at least 6.30, at least 7.30 and at least 6.30.

Values taken from patent US20250002475A1 (EPICS THERAPEUTICS, priority 2023, published 2025).
